Source: patent publication US20250215403A1, “Compositions and Methods for Cardiac Tissue Regeneration” (Temple University - Of The Commonwealth System Of Higher …, priority 2022, published 2025)

Key:
[1] = system: cardiomyocytes (CM); assay: Mouse MI model: immunostaining of heart sections for CM cell cycle markers (ki67, pH3, BrdU, Aurora B); assay type: in vivo; details: SSP gene modRNA delivery; 7 days post-MI
Protocol: (§1) All surgical and experimental procedures with mice were performed in accordance with protocols approved by Institutional Animal Care and Use Committees at Temple University Animal Care and Use Committee (IACUC). C57BL6 or CM-specific MADM mice (8-12-weeks-old) were anesthetized with isoflurane. MI was induced by permanent ligation of the LAD, as previously described (Garikipati, V. N. S., et al., 2019, Nature Communications, 10:4317). Briefly, the left thoracic region was shaved and sterilized. After intubation, the heart was exposed through a left thoracotomy. A suture was placed to ligate the LAD. The thoracotomy and skin were sutured closed in layers. Excess air was removed from the thoracic cavity, and the mouse was removed from ventilation when normal breathing was established. In order to determine the effect of modRNA on cardiovascular outcome after MI, modRNAs (100 μg/heart) were injected into the infarct zone immediately after LAD ligation (Magadum A., et al., Circulation. 2020, 141 (15): 1249-1265). For examination of heart histology, hearts were collected at the end of each study, quickly washed in PBS, weighed, and fixed in 4% PFA for cryo-sectioning and immunostainings. In all experiments, the surgeon was blinded to the treatment group. For assessment of heart histology, hearts were collected at the end of each study. The hearts were excised, briefly washed in PBS, perfused with perfusion buffer, weighed and fixed in 4% PFA at 4° C. overnight. The heart blocks were transverse sectioned at 6-8 μm using cryostat. The heart sections were further processed for histological evaluation using immunostaining (see below) or histological scar staining using Masson's trichrome staining kit (Sigma) according to standard procedures. Measuring the ratio of heart weight to body weight was done using a scale. This ratio was calculated as the heart tissue weight relative to the mouse total body weight in grams (g).
Mice were injected with AAV9-GFP or AAV9-YAP1-shRNA (GeneCopoeia) through retro-orbital injection 7 days before LAD. A total of 5×10^11 viral genomes (50 μl total volume delivered) was injected per mouse. The level of YAP1 inhibition was determined at the mRNA level by qPCR 14 days post injection.
Mice hearts were harvested, weighed, and fixed in 4% PFA/PBS overnight on shaker and then washed with PBS for 1 hour and incubated in 30% sucrose/PBS at 4° C. for 12-18 hours. Hearts were then fixed in OCT and frozen at −80° C. (Magadum A., et al., Circulation. 2020, 141 (15): 1249-1265). Transverse heart sections (6-8 μm) were made using a cryostat. Frozen sections were rehydrated in PBS for 5-10 min followed by permeabilization with PBS with 0.1% Triton™ X100 (PBST) for 7-8 min. Heart sections were then treated with 3% H2O2 for 5 min and washed (3×5 min) with PBST. The samples were then blocked with PBS+10% Donkey normal serum+0.1% Triton™ X100 (PBSST) for 1 hour at room temperature. Primary antibodies (see complete list of primary antibodies used for this Example in Table 2 below) diluted in PBST were added and incubated overnight at 4° C. Slides were washed with PBST (3×5 min) followed by incubation with a secondary antibody (Invitrogen, 1:200) diluted in PBST for 90-120 min at room temperature. The samples were further washed with PBST (3×5 min) and stained with DAPI or Hoechst 33342 (1 μg/ml) diluted in PBST for 7 min. After being washed with PBST (3×7 min) and tap water (1×5 min) slides were mounted with mounting medium (VECTASHIELD®) for imaging (Magadum A., et al., Circulation. 2020, 141 (15): 1249-1265). Stained slides were stored at 4° C. All staining was performed on 4-8 hearts/group, with 2-3 sections/heart. For immunostaining with wheat germ agglutinin (WGA) for CM size quantification, images were captured at 40× magnification, and ImageJ was used to determine the area of each cell. […]

[2] = system: cardiomyocytes (CM); assay: Mouse MI model: TUNEL staining of CM apoptosis; assay type: in vivo; details: SSP gene modRNA delivery; 7 days post-MI
Protocol: as §1
Mice hearts were harvested, weighed, and fixed in 4% PFA/PBS overnight on shaker and then washed with PBS for 1 hour and incubated in 30% sucrose/PBS at 4° C. for 12-18 hours. Hearts were then fixed in OCT and frozen at −80° C. (Magadum A., et al., Circulation. 2020, 141 (15): 1249-1265). Transverse heart sections (6-8 μm) were made using a cryostat. […] For immunostaining with wheat germ agglutinin (WGA) for CM size quantification, images were captured at 40× magnification, and ImageJ was used to determine the area of each cell. Quantitative analyses involved counting of multiple fields from 5-8 mouse hearts per group, and 3-4 sections/heart (˜50 cells per field assessed, for a total ˜250 cells per sample). […] BrdU positive CMs were counted in multiple fields from three independent samples per group and 3 sections/heart. […]

Molecule	CM cell cycle (pH3+ CMs) [1]	CM apoptosis (TUNEL+ CMs) [2]
PHGDH: modRNA encoding phosphoglycerate dehydrogenase (ORF SEQ ID NO: 6)	partially induced	inhibited
PSPH: modRNA encoding phosphoserine phosphatase (ORF SEQ ID NO: 5) (nucleic acid, modRNA) DNA: ATGGTCTCCCACTCAGAGCTGAGGAAGCTCTTCTGTTCAGCGGATGCAGTGTGCTTTGATGTTGATAGCACCGTCATCAGAGAAGAAGGAATCGATGAGCTGGCCAAATTCTGTGGTGTGGAGGCCGCAGTGTCTGAAATGACACGGAGAGCCATGGGAGGAGCATTGCCTTTTAAAGACGCGCTCACTCAGCGCCTGGCACTGATCCAGCCCTCCAGGGATCAAGTCCAGAGGCTCCTAGCTGAGCACCCGCCACATCTGACTCCTGGCATAAGGGAGCTGGTAAGCCGCCTCCAGGAGCGTAATGTCCAGGTGTTCCTCATCTCTGGTGGCTTTCGGAGCATTGTGGAGCACGTTGCTGCAAAGCTCAATATCCCAACAACCAATGTGTTTGCCAATAGGCTGAAGTTCTACTTTAATGGTGAGTACGCAGGTTTTGATGAGATGCAGCCGACAGCCGAGTCGGGTGGGAAAGGAAAGGTTATTCGGTTTTTAAAGGAAAAATTTCACTTTAAGAAAATAATCATGATTGGAGATGGAGCTACGGACATGGAAGCCTGTCCTCCTGCTGATGCTTTCATTGGCTTTGGAGGCAATGTGATCAGGCAGCAGGTTAAGGACAACGCCAAGTGGTACATCACTGACTTCGTGGAGCTGCTGGGAGAACTGGAGGAGTGA	partially induced	inhibited
